Experiments:
[1] = target: T1, Thyroid hormone receptor beta (Homo sapiens, UniProt P10828)
T1 sequence (P10828 whole entry): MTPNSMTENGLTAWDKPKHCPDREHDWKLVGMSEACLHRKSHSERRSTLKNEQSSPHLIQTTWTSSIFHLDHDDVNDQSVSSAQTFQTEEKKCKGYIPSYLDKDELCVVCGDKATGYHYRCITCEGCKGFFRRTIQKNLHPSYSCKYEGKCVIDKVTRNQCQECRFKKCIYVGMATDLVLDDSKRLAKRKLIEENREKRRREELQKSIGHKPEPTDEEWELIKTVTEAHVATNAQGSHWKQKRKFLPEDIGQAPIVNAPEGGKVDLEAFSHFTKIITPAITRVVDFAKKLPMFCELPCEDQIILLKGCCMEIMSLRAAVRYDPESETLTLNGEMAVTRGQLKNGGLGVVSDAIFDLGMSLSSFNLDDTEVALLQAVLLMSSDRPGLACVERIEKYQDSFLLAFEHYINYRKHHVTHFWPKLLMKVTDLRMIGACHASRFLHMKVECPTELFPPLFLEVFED
Description: Inhibitory concentration against cloned human thyroid hormone receptor beta 1

[2] = target: T2, Thyroid hormone receptor alpha (Homo sapiens, UniProt P10827)
T2 sequence (P10827 whole entry): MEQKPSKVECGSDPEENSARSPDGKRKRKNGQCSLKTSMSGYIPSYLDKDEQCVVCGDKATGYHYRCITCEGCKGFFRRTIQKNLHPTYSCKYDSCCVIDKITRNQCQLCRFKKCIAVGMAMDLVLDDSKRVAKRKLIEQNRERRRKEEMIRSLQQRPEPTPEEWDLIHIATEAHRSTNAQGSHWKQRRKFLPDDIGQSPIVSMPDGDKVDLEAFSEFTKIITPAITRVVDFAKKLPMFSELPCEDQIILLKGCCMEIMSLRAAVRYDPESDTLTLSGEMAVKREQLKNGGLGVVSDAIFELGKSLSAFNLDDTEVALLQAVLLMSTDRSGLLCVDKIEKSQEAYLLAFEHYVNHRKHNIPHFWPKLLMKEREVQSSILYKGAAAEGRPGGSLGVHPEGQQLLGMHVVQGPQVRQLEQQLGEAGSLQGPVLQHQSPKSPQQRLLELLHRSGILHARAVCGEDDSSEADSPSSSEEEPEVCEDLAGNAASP

[3] = target: T2, Thyroid hormone receptor alpha; assay: Inhibitory concentration against cloned human thyroid hormone receptor alpha 1

Compound	IC50 [1]	IC50 [2]	IC50 [3]
Cc1c(O)ccc2c(-c3c(Cl)cc(NC(=O)O)cc3Cl)cccc12	0.0072 µM	0.048 µM	
O=C(O)Cc1cc(Cl)c(Oc2ccc(O)cc2)c(Cl)c1	2.14 µM	3.6 µM	
O=C(O)CNc1cc(Cl)c(-c2cccc3c(Br)c(O)ccc23)c(Cl)c1	0.0018 µM	0.019 µM	
O=C(O)CC(=O)Nc1cc(Cl)c(-c2cccc3c(Br)c(O)ccc23)c(Cl)c1	0.0003 µM	0.0043 µM	
O=C(O)Cc1cc(Cl)c(-c2cccc3c(Br)c(O)ccc23)c(Cl)c1	0.013 µM	0.101 µM	
O=C(O)Cc1cc(Cl)c(-c2cccc3cc(O)ccc23)c(Cl)c1	0.545 µM		1.54 µM
O=C(O)Nc1cc(Cl)c(-c2cccc3c(-c4ccccc4)c(O)ccc23)c(Cl)c1	0.029 µM	0.125 µM	
COc1ccc2c(-c3c(Cl)cc(NC(=O)CC(=O)O)cc3Cl)cccc2c1C(C)C	0.0003 µM	0.014 µM	
O=C(O)C(=O)Nc1cc(Cl)c(-c2cccc3c(Br)c(O)ccc23)c(Cl)c1	0.0003 µM	0.0054 µM	
O=C(O)CCNc1cc(Cl)c(-c2cccc3c(Br)c(O)ccc23)c(Cl)c1	0.0018 µM	0.013 µM	
O=C(O)Cc1cc(Cl)c(Oc2ccc(O)c(Br)c2)c(Cl)c1	0.009 µM	0.109 µM	
O=C(O)CCC(=O)Nc1cc(Cl)c(-c2cccc3c(Br)c(O)ccc23)c(Cl)c1	0.022 µM	0.062 µM	

Reference: ChEMBL document CHEMBL1142857, “A new class of high affinity thyromimetics containing a phenyl-naphthylene core” (Bioorg Med Chem Lett, 2005)
